Experimental data taken from patent US10966995B2, “Use of secoisolariciresinol diglucosides (SDGS) and related compounds for protection against radiation and chemical damage” (THE TRUSTEES OF THE UNIVERSITY OF PENNSYLVANIA, priority 2014, dated 2021).

Tests used:
[1] = system: plasmid DNA; assay: Hypochlorite-induced damage to plasmid DNA; assay type: biochemical; details: SDG 25 μM; 4.5 mM HOCl
Experimental: Calf thymus or plasmid DNA was incubated with hypochlorite for 2 hrs at 37° C. DNA samples were subjected to agarose (1%) gel electrophoresis and analyzed.

[2] = system: human epithelial cells; assay: BaP-induced genotoxic stress (p53 protein levels); assay type: cell-based; details: SDG 5, 10, 25 and 50 μM
From the text: Similarly, SDG prevents genotoxic stress in human epithelial cells exposed to BaP. Exposure of cells to a potent carcinogen such as BaP, induces genotoxic stress as indicated by increased levels of p53 protein (FIG. 25). […] SDG also prevents oxidative DNA damages in human epithelial cells exposed to BaP. Exposure of cells to a potent carcinogen such as BaP, induces oxidative DNA damage as indicated by increased levels of gamma-H2AX, a marker for double-stranded DNA breaks (FIG. 26). […] Furthermore, SDG prevents DNA adduct formation in human epithelial cells exposed to BaP. Exposure of cells to a potent carcinogen such as BaP, induces the formation of DNA adducts (FIG. 27). DNA adducts are pieces of DNA covalently linked to a carcinogen and is directly linked to the development of malignancy. The DNA adduct levels is decreased by the presence of SDG or its metabolites ED and EL given alone or in combination.

[3] = system: murine primary lung epithelial cells; assay: γ-H2AX foci immunostaining, epithelial cells; assay type: cell-based, mouse; details: SDG 50 μM 6 h prior IR; 2 Gy; irradiated control 46.7% at 30 min
Experimental: (§1) Fibroblasts and endothelial cells were isolated from C57/bl6 mouse. For fibroblast isolation, mouse lungs were harvested, minced, and incubated with dispase (2 mg/ml) for 45 minutes. Pieces were plated out and fibroblasts were cultured as described previously and used between passages 3 and 10. Pulmonary microvascular endothelial cells (PMVEC) were isolated from murine lungs as described previously. Briefly, freshly harvested mouse lungs were treated with collagenase followed by isolation of cells by adherence to magnetic beads coated with mAb to platelet endothelial cell adhesion molecule (PECAM). Epithelial cells (C10) cells were originally derived from a normal BALB/c mouse lung explant and are non-tumorigenic, contact-inhibited, and have alveolar type 2 cell features at early passage.
(§2) For immunostaining of γ-H2AX, cells were plated on glass coverslips (5,000 cells/coverslip), pre-treated (6 h) with 50 μM SDG and irradiated (2 Gy). At desired time interval, cells were fixed (4% para-formaldehyde), washed and blocked with PBST (PBS+0.1% TritonX-100 containing 5% goat serum, 1% BSA). Cells were incubated with γ-H2AX primary antibody (1:200) overnight at 4° C. followed by washing with PBST (3×5 min) and incubation with secondary antibody (Alexa Fluor® 488, Invitrogen, Calif., USA) for 1 hr at RT. Nuclei were counterstained with DAPI and visualized under fluorescence microscope.

[4] = SDG pharmacokinetic study after oral gavage (plasma and lung); assay type: in vivo, mouse
Experimental: After selecting the 100 mg/kg dose as a dose that induces significant AOE expression while allowing for SDG to be detected in circulation, a pharmacokinetic study was performed to determine bioavailability and biological effects in target tissues (i.e., lung). Blood samples as well as tissues (lung, brain, liver, kidneys, spleen) were collected at 15 min, 30 min, and 1, 2, 4, 6, 8, 12 hours. SDG levels were determined as above in plasma and lung (FIGS. 41A-C). A single dose of 100 mg SDG/Kg was well absorbed and intact SDG was detectable in the circulation up to 6 hours post administration (FIG. 41A) and in flushed, blood-free lung tissues for 4 hours (FIG. 41B). […] The observed gene expression increase correlated with an increase in protein levels determined by western blotting (not shown). […] The use of SDG in human therapy is thus greatly facilitated and the toxicity risk is unlikely. Therefore a dose of 50-100 mg/Kg (1 or 2 mg SDG per day) is sufficient to induce the anticipated protective effects in target tissues and can be used for further study.

[5] = system: Murine primary lung cells (epithelial cells); assay: qPCR of Bax and Bcl-2 gene expression after irradiation; assay type: cell-based, mouse; details: for Bcl-2 mRNA levels, increase: SDG pre-treated cells
Experimental: qPCR was performed using TaqMan® Probe-Based Gene Expression Assays supplied by Applied Biosystems, Life Technologies (Carlsbad, Calif.). To evaluate the effect of SDG treatment on the mRNA expression of apoptotic genes, individual TaqMan® gene expression assays were performed for Bax (Mm00432051_m1) and Bcl-2 (Mm00477631_m1).
Briefly, cells were pre-treated with SDG (50 μM, 6 hrs) and irradiated (2 Gy). Total RNA was isolated from using RNeasy Plus Mini Kit (Qiagen, Valencia, Calif.) and quantified using a NanoDrop 2000 (ThermoFisher Scientific, Waltham, Mass.). Reverse transcription of RNA to cDNA was then performed on a Veriti® Thermal Cycler using the High Capacity RNA to cDNA kit supplied by Applied Biosystems, Life Technologies (Carlsbad, Calif.). qPCR was performed using 25 ng of cDNA per reaction well on a StepOnePlus™ Real-Time PCR System (Applied Biosystems, Life Technologies, Carlsbad, Calif.). Gene expression data was normalized to 18S ribosomal RNA and calibrated to untreated control samples according to the ΔΔCT method.

[6] = system: murine primary lung endothelial cells; assay: γ-H2AX foci immunostaining, endothelial cells; assay type: cell-based, mouse; details: SDG 50 μM 6 h prior IR; 2 Gy; irradiated control 33.6% at 30 min
Experimental: as §1, §2

[7] = system: human epithelial cells (A549); assay: BaP-induced oxidative DNA damage (8-oxo-dGuo, mass spectrometry); assay type: cell-based; details: SDG 10 μM; 25 μM BaP; 3 and 6 hours post carcinogen exposure
[8] = system: murine primary lung epithelial cells; assay: Morphological detection of apoptotic cells, epithelial cells; assay type: cell-based, mouse; details: SDG 50 μM pre-treatment; irradiated; 24 h; IR alone 13.9%
Experimental: as §1, with “Epithelial cells (C10) cells were originally derived from a normal BALB/c mouse lung explant and are non-tumorigenic, contact-inhibited, and have alveolar type 2 cell features at early passage.” left out
Apoptotic cells are morphologically characterized by condensation of nucleus and cytoplasm, membrane blebbing, cell shrinkage, and breakdown of nuclear DNA, first in large segments and subsequently in nucleosomal fragments and finally formation of well-enclosed apoptotic bodies. Percentage of cells undergoing apoptosis was determined microscopically from the slides used for micronuclei detection (cytogenetic damage). At least, 500 cells were counted for each experiment (experiment done twice) and percent apoptotic cells were determined as follows: % Cell Death=Na/Nt×100, where Na is the number of cells with apoptotic bodies and Nt is the total number of cells analyzed. Gene Expression Analysis by Quantitative Real Time PCR (qPCR)

[9] = 100 mg SDG/Kg oral, 30 minutes post-administration

## COc1cc(C[C@@H](CO[C@@H]2O[C@H](CO)[C@@H](O)[C@H](O)[C@H]2O)[C@H](CO[C@@H]2O[C@H](CO)[C@@H](O)[C@H](O)[C@H]2O)Cc2ccc(O)c(OC)c2)ccc1O [SDG, secoisolariciresinol diglucoside]
[1]
  Open coiled (OC) form of plasmid DNA: 18.6%±9.4
  Super coiled (SC) form of plasmid DNA: 81.3%±9.4
[2]
  p53 protein levels (genotoxic stress): mitigated dose-dependently
[3]
  γ-H2AX positive cells: 22.7%±2.17
[4]; 100 mg SDG/Kg oral
  Time SDG detectable in flushed, blood-free lung tissues: 4 h
  Time intact SDG detectable in the circulation post administration: up to 6 hours
[4]; [9]
  Lung tissue concentration of SDG: 12.6 µM
  Plasma concentration of SDG: 800 nM
[4]; single dose of 100 mg SDG/Kg, oral gavage
  Absorption: well absorbed
[5]; SDG 50 μM pre-treatment, 2 Gy, 24 and 48 hours post-IR
  IR-induced increase in pro-apoptotic Bax mRNA levels: significantly (p<0.05) inhibited
[5]; 24 hours post-IR
  Bcl-2 mRNA levels, increase: 6.6 fold
[5]; 48 hours post-IR
  Bcl-2 mRNA levels, increase: 3.5 fold
[6]
  γ-H2AX positive cells: 21.92%±2.88
[7]
  Oxidative DNA damage (8-oxo-dGuo): decreased DNA damage
[8]
  Apoptotic cells: 9.9%±1.08
